Here are results for 87 compounds from the COVID Moonshot data (paper PMC7615835).

Several values for one entry are separate records, joined by “and”; a condition that tells them apart may be missing. Equal values may be shown once.

The target of the test is SARS-CoV-2 Main Protease (SARS-CoV-2) (UniProt P0DTD1).
Usually IC50 stands for the concentration that inhibits the measured activity by half. Compound `O=C(Cc1cc(Cl)cc(Nc2nc(-c3ccc(Cl)c(Cl)c3)cs2)c1)Nc1cncc2ccccc12` showed an IC50 of 2.46 µM.
For the compound `Cc1cc(Br)c(Nc2cc(Cl)cc(CC(=O)Nc3cncc4ccccc34)c2)c([N+](=O)[O-])c1`, the half-maximal inhibitory concentration (IC50) was determined as 1.94 µM.
For `COc1cccc(CCNc2cc(Cl)cc(CC(=O)Nc3cncc4ccccc34)c2)c1` the value was 3.16 µM; for `CS(=O)(=O)Cc1ccc(N(C(=O)c2cocn2)C(C(=O)NCCc2cccc(F)c2)c2cccnc2)cc1` (configuration not stated), 27.7 µM.
As for `O=C(NCCc1cccc(F)c1)C(c1cccnc1)N(C(=O)c1cocn1)C1CCC2(CCO2)CC1` (configuration not stated), the half-maximal inhibitory concentration (IC50) is over 99.5 µM.
On to `COc1c(Cl)cccc1Nc1cc(Cl)cc(CC(=O)Nc2cncc3ccccc23)c1`, for which the IC50 was 1.68 µM.
Compound `Cc1ccccc1NC(=O)CC1SC(=O)N(c2ccccc2)C1=O` (configuration not stated) returned a half-maximal inhibitory concentration (IC50) of 0.443 µM.
With `O=C(Nc1cncc2ccccc12)C1CCOc2c(O)cc(Cl)cc21` (configuration not stated), the half-maximal inhibitory concentration (IC50) is 0.579 µM.
With `CN(C(=O)c1ccccc1N)c1cc(Cl)cc(CC(=O)Nc2cncc3ccccc23)c1` the figure was 1.94 µM; with `CC(C)(C)c1ccc(N(C(=O)c2ccon2)C(C(=O)NCCc2cccc(F)c2)c2cccnc2)cc1` (configuration not stated), 4.26 µM.
As to `Cc1cc(Cl)cc(CC2CCN(C(=O)CCl)CC2)c1`, the concentration for half-maximal inhibition (IC50) was 3.57 µM.
Consider `CC1(CS(=O)(=O)N2Cc3ccc(Cl)cc3C3(CCN(c4cncc5ccccc45)C3=O)C2)CC1` (configuration not stated), for which the IC50 was 0.265 µM.
`CN(C)CCOc1ccc2cncc(NC(=O)C3CN(S(=O)(=O)CC4(C)CS(=O)(=O)C4)Cc4ccc(Cl)cc43)c2c1` (configuration not stated): the half-maximal inhibitory concentration (IC50) was found to be 0.125 µM.
For `COc1cc(Cl)cc2c1OCC[C@H]2C(=O)Nc1cncc2ccccc12` (stereo in doubt) the value was over 99.5 µM.
With `O=C(Cc1cc(Cl)cc(Nc2ccnc(Br)c2)c1)Nc1cncc2ccccc12`, the IC50 stood at 2.74 µM.
`Cc1nc2ccc(N(C(=O)c3cocn3)C(C(=O)NCCc3cccc(F)c3)c3cccnc3)cc2o1` (configuration not stated) registered a concentration for half-maximal inhibition (IC50) of over 99.5 µM.
For the compound `CC(NCc1cnc2c(cnn2C)c1)c1nc2ccccc2s1` (configuration not stated), the IC50 was over 99.5 µM.
In the case of `COc1cc2c(cc1OC)CN(c1cc(Cl)cc(CC(=O)Nc3cncc4ccccc34)c1)CC2`, the IC50 was determined as 1.65 µM.
`Cc1ccc(C(Cc2ccccc2)C(=O)Nc2nnn3ccccc23)cc1` (configuration not stated) came in with a half-maximal inhibitory concentration (IC50) of over 99.5 µM.
For `CN(Cc1nnc2ccccn12)C(=O)c1ccnc2ccccc12` the value was over 99.5 µM.
`Cc1nnn(NC(=O)Cc2cccc(Cl)c2)c1C` registered an IC50 of 14.2 µM.
`O=C(Nc1cnc2nccn2c1)c1cn2c(Br)cnc2s1` had a concentration for half-maximal inhibition (IC50) of over 99.5 µM.
For `Cc1nc(Cl)c(Nc2cc(Cl)cc(CC(=O)Nc3cncc4ccccc34)c2)c(Cl)n1` the value was 1.64 µM; for `O=C(Cc1cccc(Cl)c1)Nc1cccc2cn[nH]c12`, over 99.5 µM; for `Cc1[nH]ncc1CC(=O)Nc1cccc(Cl)c1`, 54.6 µM.
As to `CCNC(=O)CN1CC(C(=O)Nc2cncc3cc(S(C)(=O)=O)ccc23)c2cc(Cl)ccc2C1=O` (configuration not stated), the half-inhibitory concentration (IC50) was 0.0675 µM and 0.134 µM.
On to `CC1(C)Cc2cccc(OCCNC(=O)c3cc(=O)[nH]c4cc(F)ccc34)c2O1`, for which the IC50 was over 99.5 µM.
With `O=C(NCCc1cccc(F)c1)C(c1cccnc1)N(C(=O)c1cocn1)c1ccc(-n2ccnc2)cc1` (configuration not stated) the figure was over 99.5 µM.
`CN(C)C(=O)COCC1(C(=O)Nc2cncc3ccccc23)CCOc2ccc(Cl)cc21` (configuration not stated) came in with a 50% inhibitory concentration (IC50) of 0.652 µM.
Take `COCc1ccccc1CNS(=O)(=O)c1c(C)sc(C)c1C`: the IC50 is over 99.5 µM.
With `CN(C)c1ccc(C(Cc2ccsc2)C(=O)Nc2nnc3ccccn23)cc1` (configuration not stated) the figure was over 99.5 µM; with `Cc1nnc(C2Cc3ccccc3CN2C(=O)CCl)o1` (configuration not stated), 53.5 µM.
Turning to `CC(C)(C)c1cnc(N(C(=O)c2ccco2)C(C(=O)NCCc2cccc(F)c2)c2cccnc2)s1` (configuration not stated), the IC50 is 3.94 µM.
For `C=CC(=O)N(c1ccc(C(C)(C)C)cc1)C(C(=O)NCC1CCCO1)c1cccnc1` (configuration not stated) the value was 90.5 µM; for `Cc1ccn2cnnc2c1NC(=O)C1CCOc2ccc(Cl)cc21` (configuration not stated), over 99.5 µM.
With `N#CC1(CS(=O)(=O)N2Cc3ccc(Cl)cc3C3(CCN(c4cncc5ccccc45)C3=O)C2)CCOCC1` (configuration not stated) the figure was 0.338 µM.
Turning to `N#CC1(CS(=O)(=O)N2Cc3ccc(Cl)cc3C3(CCN(c4cncc5cc(F)cc(Cl)c45)C3=O)C2)CC1` (configuration not stated), the IC50 was 23.8 µM.
As to `O=C(Cc1cc(Cl)cc(Nc2cc(Cl)nc(Cl)n2)c1)Nc1cncc2ccccc12`, the half-inhibitory concentration (IC50) worked out at 1.83 µM.
Compound `CC(C)(C)c1ccc(N(C(=O)c2cn(CCN3CCOCC3)nn2)C(C(=O)NCCc2cccc(F)c2)c2cccnc2)cc1` (configuration not stated) gave an IC50 of 10.5 µM.
On to `N#CC1(CS(=O)(=O)N2Cc3ccc(Cl)cc3[C@H](C(=O)Nc3cncc4ccccc34)C2)CNC1` (stereo in doubt), for which the half-inhibitory concentration (IC50) is 0.0562 µM and 0.0849 µM.
Compound `CC(C)(C)OC(=O)[C@H]1CCCN1c1cc(Cl)cc(CC(=O)Nc2cncc3ccccc23)c1` (stereo in doubt) returned a half-maximal inhibitory concentration (IC50) of 2.52 µM.
With `O=C(CCl)N1CCN(C(c2ccccc2)C2CCOCC2)CC1` (configuration not stated), the 50% inhibitory concentration (IC50) is 28.4 µM and 15.1 µM.
Compound `O=C(Cc1cccc(Cl)c1)Nc1ncnc2ccccc12` yielded a concentration for half-maximal inhibition (IC50) of over 99.5 µM.
With `N#Cc1cc(Cl)ccc1Nc1cc(Cl)cc(CC(=O)Nc2cncc3ccccc23)c1` the figure was 2.23 µM; with `Cc1ccncc1NC(=O)Cc1cc(Cl)cc(NC2CCC(F)(F)C2O)c1` (configuration not stated), 23 µM; with `CC(=O)N(CC(=O)Nc1ccc(F)c(Cl)c1)c1cccc(C(F)(F)F)c1`, over 99.5 µM.
The compound `CN1CC(C)(C(=O)Nc2cncc3cc(S(C)(=O)=O)ccc23)c2cc(Cl)ccc2S1(=O)=O` (configuration not stated) displayed an IC50 of 0.523 µM.
For `CC(C)(C)c1ccc(N(C(=O)c2coc(CS(C)(=O)=O)n2)C(C(=O)NCCc2cccc(F)c2)c2cccnc2)cc1` (configuration not stated) the value was 39.2 µM; for `O=C(NCCc1cccc(F)c1)C(c1cccnc1)N(Cc1ccccc1C1CCC1)C(=O)c1ccco1` (configuration not stated), 1.93 µM; for `NS(=O)(=O)c1ccc(CNC(=O)CC2(C(=O)Nc3cncc4ccccc34)CCOc3ccc(Cl)cc32)cc1` (configuration not stated), 3.72 µM.
`CC(=O)NCc1cc(Cl)cc(CC(=O)Nc2cnccc2C)c1` registered an IC50 of 41.3 µM.
The compound `CC(CCc1ccccc1)N1CCN(C(=O)CCl)CC1` (configuration not stated) gave an IC50 of 20.3 µM.
The compound `C=CC(=O)N(c1ccc(C(C)(C)C)cc1)C(C(=O)NCc1ccccc1)c1cccnc1` (configuration not stated) yielded an IC50 of 33.3 µM.
Consider `CCN(CC)CCOc1ccc2cncc(N3CCC4(CN(S(=O)(=O)CC5(C#N)CC5)Cc5ccc(Cl)cc54)C3=O)c2c1` (configuration not stated), for which the IC50 is 0.183 µM.
The compound `O=C(Cc1cc(Cl)cc(N2CCC(O)(c3ccc(Cl)cc3)CC2)c1)Nc1cncc2ccccc12` came in with an IC50 of 5.21 µM.
Compound `Cc1cc(Br)cc(Nc2cc(Cl)cc(CC(=O)Nc3cncc4ccccc34)c2)c1` returned an IC50 of 1.96 µM.
On to `O=C1CN(C(=O)Cc2cccc(Cl)c2)Cc2ccccc21`, for which the IC50 was over 99.5 µM.
With `C#CCCCC(=O)N[C@H](C(=O)N[C@H](CC(C)C)C(=O)NN(CCC(N)=O)C(=O)/C=C/C(=O)OC)C(C)(C)C` (stereo in doubt) the figure was < 0.05 µM and 0.044 µM.
In turn, `N#CCC(=O)N1CCc2ccc(Cl)cc2C1C(=O)Nc1cncc2ccccc12` (configuration not stated) showed a half-inhibitory concentration (IC50) of 6.51 µM.
For `CC(C)(C)c1ccc(N(C(=O)c2cocn2)C(C(=O)NCCc2cccc(F)c2)c2cc(=O)[nH]c3ccccc23)cc1` (configuration not stated) the value was 1.16 µM; for `CC(NCc1c[nH]c2nccnc12)c1cc(F)ccc1N1CCC(O)CC1` (configuration not stated), over 99.5 µM.
For `Cc1ccc2ncnc(NCc3ccc4nonc4c3)c2c1` the value was over 99.5 µM.
Regarding `O=C(Cc1cc(Cl)cc(NCc2ccccc2Br)c1)Nc1cncc2ccccc12`, the IC50 is 3.5 µM.
With `N#CC1(CS(=O)(=O)N2Cc3ccc(Cl)cc3C3(CCN(c4cncc5ccc(F)cc45)C3=O)C2)CC1` (configuration not stated) the figure was 0.828 µM; with `CC(C)(CNC(=O)C1CNC(=O)N1)N1CCc2ccccc2C1` (configuration not stated), over 99.5 µM.
Compound `Cc1[nH]c2ccccc2c1C(=O)CSc1nc2cc(Cl)cnc2[nH]1` registered an IC50 of over 99.5 µM.
In the case of `N#CC1(CS(=O)(=O)N2Cc3ccc(Cl)cc3C3(CCN(c4cncc5ccc(OCCCN6CCCC6)cc45)C3=O)C2)CC1` (configuration not stated), the IC50 is 0.128 µM.
`O=C(Cc1cccc(Cl)c1)Nc1cncc2c1CCCC2` registered an IC50 of over 99.5 µM.
`O=C(CC1(C(=O)Nc2cncc3ccccc23)CCOc2ccc(Cl)cc21)N1CCN(C2CCOC2)CC1` (configuration not stated): the concentration for half-maximal inhibition (IC50) amounted to 6.68 µM.
For `CC(C)(C)c1ccc(N(C(=O)c2cocn2)C(C(=O)NCc2ccncc2)c2cccnc2)cc1` (configuration not stated), the IC50 is over 99.5 µM.
In turn, `Cc1cnnn1-c1ccc(N(C(=O)c2cocn2)C(C(=O)NCCc2cccc(F)c2)c2cccnc2)cc1` (configuration not stated) returned a half-inhibitory concentration (IC50) of 28.4 µM.
For `O=C(NCCc1cccc(F)c1)C(c1cccnc1)N(C(=O)c1cocn1)c1ccc(OC2CCOC2)cc1` (configuration not stated) the value was 6.32 µM.
With `CC(=O)N(CC(=O)Nc1ccc(F)c(Cl)c1)c1cccc(C#N)c1` the figure was over 99.5 µM.
For `C[C@@]1(C(=O)Nc2cncc3c2CCCC3)CNS(=O)(=O)c2ccc(Cl)cc21` (stereo in doubt) the value was 3.72 µM; for `O=C(Cc1cc(Cl)cc(Nc2ccc3scnc3c2)c1)Nc1cncc2ccccc12`, 2.22 µM; for `Cc1ccncc1NC(=O)Cc1cc(Cl)cc(OCc2cc(-c3ccc(Cl)cc3)no2)c1`, over 99.5 µM.
The compound `Cc1ccc(NC2=C(c3ccccc3)C(=O)N(Cc3cccnc3)C2=O)c(C)c1` came in with a 50% inhibitory concentration (IC50) of over 99.5 µM.
Compound `Cc1ccc2cncc(NC(=O)Cc3cccc(Cl)c3)c2c1` gave a concentration for half-maximal inhibition (IC50) of 0.537 µM.
In turn, `O=C(Cc1cccc(Cl)c1)Nc1cncn1-c1ccccc1` yielded a concentration for half-maximal inhibition (IC50) of over 99.5 µM.
Regarding `C[C@@H]1NC(=O)c2ccc(Cl)cc2[C@@H]1C(=O)Nc1cncc2ccccc12` (stereo in doubt), the IC50 amounted to 0.454 µM.
As to `O=C(Cc1cccc(Cl)c1)Nc1cnccc1C(=O)O`, the IC50 was over 99.5 µM.
On to `C=CC(=O)N(Cc1ccccc1Cl)C(C(=O)NC)c1cccnc1` (configuration not stated), for which the half-inhibitory concentration (IC50) is over 99.5 µM.
`O=C(Cc1cc(Cl)cc(Nc2ccc(I)cc2F)c1)Nc1cncc2ccccc12` yielded a half-inhibitory concentration (IC50) of 2.24 µM.
`CCN(C(=O)c1ccco1)C(C(=O)NCCc1cccc(F)c1)c1cccnc1` (configuration not stated) showed a 50% inhibitory concentration (IC50) of over 99.5 µM.
For the compound `N#CC1(CS(=O)(=O)N2Cc3ccc(Cl)cc3C(C(=O)Nc3cncc4ccccc34)C2)CCOCC1` (configuration not stated), the IC50 was 0.0804 µM and 0.0971 µM and 0.17 µM.
On to `Cc1ccc(C(Cc2cnn(C)c2)C(=O)Nc2n[nH]c3ccccc23)cc1` (configuration not stated), for which the IC50 is over 99.5 µM.
Regarding `O=C(NCC1(C(=O)Nc2cncc3ccccc23)CCOc2ccc(Cl)cc21)C1COCCN1CC(F)(F)F` (configuration not stated), the concentration for half-maximal inhibition (IC50) was 17.1 µM and 27.2 µM.
